The source made the active and inactive calls. The rule behind the calls is not given here.
Assays:
Assay in all cases: potency against CXCR6 with APJ panel – cell-based, beta-arrestin, DiscoveRx, uHTS hits, dose response (AID 624129)
[1] = biological target: Apelin receptor (Homo sapiens) (UniProt P35414); conditions: CXCR6 beta-arrestin (DiscoveRx) antagonist cell assay, APJ
[2] = biological target: Beta-galactosidase (Escherichia coli) (UniProt Q8VNN2); conditions: CXCR6 beta-arrestin (DiscoveRx) antagonist cell assay, b-galactosidase
Beta-galactosidase (Escherichia coli), sequence (Q8VNN2 whole entry, looked up): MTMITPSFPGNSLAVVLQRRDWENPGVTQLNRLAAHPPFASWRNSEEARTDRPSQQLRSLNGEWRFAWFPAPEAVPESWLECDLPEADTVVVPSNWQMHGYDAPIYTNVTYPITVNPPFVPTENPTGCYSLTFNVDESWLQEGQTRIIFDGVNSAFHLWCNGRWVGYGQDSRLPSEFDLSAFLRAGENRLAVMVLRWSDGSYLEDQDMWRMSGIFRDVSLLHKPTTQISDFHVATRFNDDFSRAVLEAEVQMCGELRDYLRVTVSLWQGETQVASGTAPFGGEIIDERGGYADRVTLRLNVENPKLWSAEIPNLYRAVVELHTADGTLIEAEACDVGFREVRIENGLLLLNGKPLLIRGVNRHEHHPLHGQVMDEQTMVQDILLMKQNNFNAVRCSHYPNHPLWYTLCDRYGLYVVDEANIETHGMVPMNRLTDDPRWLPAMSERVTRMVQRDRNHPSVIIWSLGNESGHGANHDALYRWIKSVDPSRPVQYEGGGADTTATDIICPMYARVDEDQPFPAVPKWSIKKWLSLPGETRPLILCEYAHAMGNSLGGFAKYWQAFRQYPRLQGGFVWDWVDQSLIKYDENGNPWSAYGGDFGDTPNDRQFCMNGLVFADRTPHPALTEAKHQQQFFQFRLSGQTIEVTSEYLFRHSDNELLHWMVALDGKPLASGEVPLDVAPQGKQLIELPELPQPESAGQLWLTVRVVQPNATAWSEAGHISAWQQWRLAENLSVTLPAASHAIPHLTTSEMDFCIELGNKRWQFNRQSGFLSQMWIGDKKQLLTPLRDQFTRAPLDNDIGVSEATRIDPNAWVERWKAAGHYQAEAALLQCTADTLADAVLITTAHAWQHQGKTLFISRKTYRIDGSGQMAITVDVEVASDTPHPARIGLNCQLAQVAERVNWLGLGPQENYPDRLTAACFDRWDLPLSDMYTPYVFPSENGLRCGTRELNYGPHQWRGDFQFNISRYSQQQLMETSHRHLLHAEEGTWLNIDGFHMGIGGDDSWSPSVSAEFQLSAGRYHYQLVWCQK

[3] = biological target: C-C chemokine receptor type 6 (Homo sapiens) (UniProt P51684); conditions: CXCR6 beta-arrestin (DiscoveRx) antagonist cell assay
[4] = biological target: C-X-C chemokine receptor type 6 (Homo sapiens) (UniProt O00574); conditions: CXCR6 beta-arrestin (DiscoveRx) antagonist cell assay; for inhibition: CXCR6, run 1, dose range 2, at 80 µM (top of the series)
C-X-C chemokine receptor type 6 (Homo sapiens), sequence (O00574 whole entry, looked up): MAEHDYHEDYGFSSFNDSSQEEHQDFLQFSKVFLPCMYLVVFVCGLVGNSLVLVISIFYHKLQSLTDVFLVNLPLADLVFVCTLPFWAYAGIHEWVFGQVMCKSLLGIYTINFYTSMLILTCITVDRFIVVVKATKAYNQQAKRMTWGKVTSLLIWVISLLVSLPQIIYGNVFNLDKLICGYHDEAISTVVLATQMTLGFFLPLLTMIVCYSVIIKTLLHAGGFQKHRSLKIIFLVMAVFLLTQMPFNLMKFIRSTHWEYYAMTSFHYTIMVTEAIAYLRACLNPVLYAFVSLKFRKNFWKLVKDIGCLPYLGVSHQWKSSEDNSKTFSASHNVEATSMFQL

[5] = dose range 1, mean IC50 across replicates
[6] = CCR6, dose range 1, mean IC50 across replicates
[7] = CXCR6, dose range 1, mean IC50 across replicates

| IC50 ([1]; dose range 1) | IC50 [1, 5] | IC50 ([1]; run 2, dose range 1) | IC50 ([1]; run 3, dose range 1) | IC50 ([2]; dose range 1) | IC50 [2, 5] | IC50 ([3]; CCR6, dose range 1) | IC50 [3, 6] | IC50 ([3]; CCR6, run 2, dose range 1) | IC50 ([4]; CXCR6, dose range 1) | IC50 [4, 7] | IC50 ([4]; CXCR6, run 1, dose range 2) | IC50 ([4]; CXCR6, run 2, dose range 1) | IC50 ([4]; CXCR6, run 2, dose range 2) | inhibition [4] | Structure (SMILES) |
| --- | --- | --- | --- | --- | --- | --- | --- | --- | --- | --- | --- | --- | --- | --- | --- |
| 12.9 µM | 12 µM | 10.9 µM | 12.3 µM | > 80 µM (inactive) | > 80 µM | 12.5 µM | 14 µM | 15.5 µM | inactive | 12.5 µM | 6.99 µM | 18.4 µM | 11.2 µM | – | Cc1ccc2c(c1)C1CN(C)CCC1N2C(=S)NC(=O)c1ccc(Br)cc1 (stereo not drawn) |
| 15.5 µM | 19.1 µM | 22.8 µM | > 80 µM | 31.8 µM | 31.8 µM | 14.3 µM | 18.8 µM | 23.3 µM | inactive | 21.8 µM | – | 24 µM | – | 157% | Cc1ccc(C(C[N+](=O)[O-])Sc2ccc(N)cc2)cc1 (stereo not drawn) |
| 11 µM | 11.9 µM | 11.4 µM | 13.1 µM | > 80 µM (inactive) | > 80 µM | 12.1 µM | 13.7 µM | 15.2 µM | inactive | 12.5 µM | 11.3 µM | 14.2 µM | 9.55 µM | – | Cn1nc([N+](=O)[O-])nc1Sc1cccc2cccnc12 |
| 1.79 µM | 2.03 µM | 2.16 µM | 2.13 µM | > 80 µM (inactive) | > 80 µM | 1.76 µM | 2.43 µM | 3.1 µM | 2.61 µM | 1.76 µM | 1.4 µM | 1.74 µM | 1.28 µM | – | CCc1cc2c(=O)[nH]c(-c3ccccn3)nc2s1 |
| > 80 µM (inactive) | > 80 µM | > 80 µM | > 80 µM | > 80 µM (inactive) | > 80 µM | 6.38 µM | 30 µM | 53.6 µM | – | 8.69 µM | 8.09 µM | > 80 µM | 9.29 µM | – | CC(=O)OCCCNc1cc(Sc2nc3ccccc3s2)c2nonc2c1[N+](=O)[O-] |
| 14.2 µM | 14.4 µM | 15.4 µM | 13.6 µM | > 80 µM (inactive) | > 80 µM | 9.21 µM | 8.82 µM | 8.44 µM | 13.7 µM | 10.7 µM | 9.08 µM | 8.84 µM | 11.3 µM | – | CC(=O)Nc1ccc(Sc2ccc([N+](=O)[O-])o2)cc1 |
| 5.08 µM | 4.65 µM | 4.27 µM | 4.6 µM | 39.8 µM | 39.8 µM | 1.97 µM | 2.12 µM | 2.27 µM | 3.22 µM | 3.05 µM | – | 2.88 µM | – | 145% | CC(=O)OCCCNc1cc(Sc2ccc(Cl)cc2)c2nonc2c1[N+](=O)[O-] |
| 16.7 µM | 17.8 µM | 19 µM | 17.5 µM | > 80 µM (inactive) | > 80 µM | 7.97 µM | 8.52 µM | 9.06 µM | 10.3 µM | 8.04 µM | – | 5.75 µM | – | 118% | Cc1ccc(S(=O)(=O)Nc2cccc3cccnc23)cc1 |
| 22.9 µM | 37 µM | 31.3 µM | 56.9 µM | inactive | 50.1 µM | – | 30.5 µM | 30.5 µM | inactive | 18.3 µM | – | 8.04 µM | – | 93.1% | Cc1cc(S(=O)(=O)c2ccc(Cl)cc2)nc(S(=O)(=O)c2ccc(Cl)cc2)c1C#N |
| 13.3 µM | 25.6 µM | 27.9 µM | 35.5 µM | > 80 µM (inactive) | > 80 µM | 11.2 µM | 17.2 µM | 23.1 µM | inactive | 16.3 µM | – | 20 µM | – | 142% | CC(C)(C)c1ccc(CN2N=Nc3ccccc3S2(=O)=O)cc1 |
